Measurements reported in US20130259929A1, “USE OF A PHOSPHOPEPTIDE ABLE TO BLOCK HER3/P85 INTERACTION FOR THE TREATMENT OF HER2 HYPER-EXPRESSING TUMOURS” (priority 2010, published 2013).
Non-standard residues stand in square brackets, D forms with d. No end group written: not given here. pY = N[C@@H](Cc1ccc(OP(=O)(O)O)cc1)C(=O)O

Tests used:
[1] = molecular target: T1, HER3 binding to GST-N-SH2p85 fusion protein (Homo sapiens, UniProt P27986); test: GST pull-down; settings: lysates of BT474, MCF7 and MDA-MB-453 cells, in vitro (FIG. 2A, FIG. 3)
T1 construct: containing SH2 domains in N-terminal portion of p85 sub-unit
T1 sequence (P27986 333-428 limits assumed): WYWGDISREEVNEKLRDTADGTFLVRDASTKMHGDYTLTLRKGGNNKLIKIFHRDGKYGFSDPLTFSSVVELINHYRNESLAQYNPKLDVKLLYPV
Experimental: GST pull-down. MCF-7, BT474 and MDA-MB-453 cell lines have been washed 2 times with cold PBS and extracted with lysis buffer [(50 mM Tris HCl (pH 7.4), 250 mM NaCl, 0,1% Triton X-100, 5 mM EDTA, 50 mM NaF, 1 mM PMSF, 5 mM Na3VO4 and 50 mmol/L of protease inhibitors (Roche, Milano, IT)]. After 20 minute ice-cold incubation, the lysates have been clarified by centrifugation at 14000 rpm for 20 minutes. The cellular extracts (1 mg sample) have been incubated for 4 hours at 4° C. in the presence of GST bound gluthatione-agarose beads or GST-p85 fusion protein (kindly supplied by doctor S. Giordano), in the presence or absence of 1257 phosphopeptide or scr peptide used as control. Then the interaction complexes have been washed six times with lysis buffer and subsequently beads eluted using Laemli Buffer 2× [(140 mM SDS, 432 mM Glycerol, 1.6 mM Bromophenol blue, 120 mM Tris HCl (pH 6.8), 8% β-mercaptoethanol)]. The proteins have been separated using 8% SDS-PAGE and transferred on nitrocellulose filter. The filter has been then immunodecorated with anti ErbB3 antibody.
As in FIG. 2A is apparent that 1257 phosphopeptide effectively in vitro binds p85 sub-unit thus inhibiting HER3 receptor binding.

MCF7/Luc cells = test: In vivo growth of peptide-transfected MCF7/Luc cells inoculated s.c.; set-up: species or system SCID mice
Experimental: (§1) Xeno-grafts. In vivo tests have been carried out using 40 day old SCID female mice (Harlan Laboratories, Milan, IT). At day 0, animals have been totally anesthetized with intramuscular injection of 400 μg/animal (average weight 25 g) of Zoletil (Virbac) containing 0.12% Xylor (Xylazine), and transplanted subcutaneously (s.c.), in intrascapular mouse region with pellet of […] (1.7 mg/sustained release pellet over 60 days, Innovative Research of America, Sarasota, Fla.). On the next day, 5×10^6 proliferating and scr and 1257 peptide previously transfected, as above described, MCF7 or BT474 cells, have been re-suspended in 0.1 ml of Matrigel (BD Biosciences) and subcutaneously inoculated in each mouse. […] Tumour growth has been monitored two times weekly using calibration along two orthogonal axes: length (L) and […]. The tumour volume (V) has been calculated using the formula V=L*(W2)/2. All the procedures relating to animals and treatment thereof have been carried out according institutional guidelines.
Generation of mammary tumour luminescent cells. Mammary tumour MCF7 cell lines stably transfected using pGL4.51 (luc2/CMV/Neo) expression vector, produced by Promega (Me, IT), have been transfected using scr or 1257 phosphopeptide ([…]×5×10^4 cells/mouse) and after 30 h subcutaneously inoculated in SCID mice (5×10^6 cells/mouse) in 200 μl (1:1 Matrigel: cell suspension in serum free medium). Mice have been in vivo imaged 20′ after inoculation and once weekly over 11 weeks. The animals have been anesthetized, as above reported, and subjected to intraperitoneal injection with 200 μl of luciferin (Caliper, Mi, IT); 10′ after incubation photon emission has been analyzed at 3′ minute exposure using Xenogen Ivis Lumina 2 machine. Growth of these cells has been monitored as reported in xenografts section.
Then it has been verified whether 1257 phosphopeptide was effective also in vivo. To this purpose immunocompromised SCID mice have been used. In the presence of oestrogen tablets, 5×10^6 control cells transfected with scr peptide or transfected with 1257 peptide have been injected subcutaneously between mouse scapulae. In order to verify the viability of phosphopeptide transfected cells in animals we have generated a stable luciferase gene expressing MCF7 cell line (MCF7/Luc).

BT474 cells = test: Cell death and apoptosis (Trypan Blue exclusion); format: cell-based, human; settings: BT474 cells vs parental or scr transfected; Herceptin 1 μg/ml 40 hours where combined
Excerpt: (§2) Cell death and Apoptosis. MCF7, BT474 and MDA-MB-453 cell lines have been plated at 5×10^5 concentration in 60 mm plates. On subsequent day the cells have been transfected with ErbB3 specific interference oligonucleotides or peptides. […] The cells have been washed two times with cold PBS and then trypsin collected. The evaluation of cellular viability has been carried out by means of Trypan Blue exclusion. The use of anti-PARP antibody in Western Blotting analysis allowed apoptosis to be evaluated. Briefly the cells have been lysed in RIPA buffer [150 mM NaCl, 1% NP-40, 0,5% sodium deoxycholate (DOC), 0.1% SDS, 50 mM TrisHCl (pH 8), 1 mM PMSF, 1 mM EGTA, 50 mM NaF, 50 mM Na3VO4 and protease inhibitors (Roche, Milano, IT)]. The samples have been boiled for 5 minutes at 95° C., resolved using SDS-PAGE, transferred on nitrocellulose and blotted using anti-PARP antibody. The tumour cell death analyzed by immunohistochemistry have been obtained using TUNEL assay.

MCF7 cells = test: Cell death and apoptosis (Trypan Blue exclusion); format: cell-based, human; settings: MCF7 cells vs parental or scr transfected; Herceptin 1 μg/ml 40 hours where combined
Excerpt: as §2

BT474 xenograft = test: Electroporation tumour therapy of BT474 xenografts; format: in vivo, SCID mice; settings: Herceptin i.p. (FIG. 11A)
Experimental: Xeno-grafts. In vivo tests have been carried out using 40 day old SCID female mice (Harlan Laboratories, Milan, IT). At day 0, animals have been totally anesthetized with intramuscular injection of 400 μg/animal (average weight 25 g) of Zoletil (Virbac) containing 0.12% Xylor (Xylazine), and transplanted subcutaneously (s.c.), in intrascapular mouse region with pellet of 17-h-extradiol (1.7 mg/sustained release pellet over 60 days, Innovative Research of America, Sarasota, Fla.). […] Tumour growth has been monitored two times weekly using calibration along two orthogonal axes: length (L) and depth (VV). The tumour volume (V) has been calculated using the formula V=L*(W2)/2.
Electroporation tumour therapy. […] Therapy has been repeated once weekly, and tumour size monitored up to 70 days.

MCF7 xenograft = test: Electroporation tumour therapy of MCF7 xenografts; format: in vivo, SCID mice
Experimental: as §1
Electroporation tumour therapy. […] A dilute solution of 1257 peptide (75 ug) in 15 ul of sterile PBS has been directly injected in each xenograft, which subsequently has been electrode pulsed. PBS diluted scr peptide has been used as control, according to same procedure. As a further control we have analyzed two groups of not peptide injected animals, except that one of two was subjected to electroporation. Therapy has been repeated once weekly, and tumour size monitored up to 70 days.
Tumour size has been measured at regular intervals (alternate days) using a caliber and tumour volume has been calculated as above described. In order to minimize animal pain during the electroporation, tests have been carried out under total anesthesia. All the procedures concerning animals and treatment thereof have been carried out according to institutional guidelines.
In an attempt to use an experimental approach mimicking human therapy, scr or 1257 phosphopeptides has been administered directly into tumour. The administration of the peptide has been carried out by injection and successive electroporation in order to allow the phosphopeptide penetration. This technique facilitating the drug absorption from the tumour is used for human mainly to treat superficial lesions like melanomas, skin tumours or cutaneous metastases, but currently it is also used for carcinomas during pre-operation sessions. The peptide administration has been carried out when the tumour volume was 200 mm^3.

[2] = s.c. inoculation of transfected MCF7 cells, up to 16th week
[3] = intra-tumour injection + electroporation once weekly, MCF7

RDGGGPGGDpYAAMGACPA (RDGGGPGGD[pY]AAMGACPA; listed as Homo sapiens) [1257 phosphopeptide]
inhibition of HER3 and p85 SH2 domain binding [1]: inhibits in specific way HER3 and p85 SH2 domain binding
luminescence of transplanted cells over the time (MCF7/Luc cells; bioluminescence imaging weekly (FIG. 7A)): progressively decreases
time after inoculation at which tumours were calibratable (MCF7/Luc cells; s.c. inoculation of transfected MCF7 cells): about 10 week
animals that displayed tumour (MCF7/Luc cells; [2]): One out of five
reduction of tumour take (MCF7/Luc cells; [2]): 80%
cell death, times higher than controls (BT474 cells): 4 times
cell death, times higher than controls (MCF7 cells): 3 times
tumour mass compared to not treated control (BT474 xenograft): strongly reduces the tumour mass
apoptosis in tumours (TUNNEL assay) (MCF7 xenograft; immunohistochemistry of electroporation treated tumours (FIG. 9A)): go in apoptosis
proliferation in tumours (Ki67 assay) (MCF7 xenograft; immunohistochemistry of electroporation treated tumours (FIG. 9B)): low proliferating index
inhibition of tumour growth compared to control not treated tumours (MCF7 xenograft; [3]): 58%
inhibition of tumour growth compared to scr peptide inoculated tumours (MCF7 xenograft; [3]): 50%
